Source: PubChem BioAssay (NCI)
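Briefly, cells in 96-well plates were exposed to five compound concentrations for 48 h, and endpoints were estimated by linear interpolation. Here, GI50 denotes the concentration required for 50% inhibition of growth. At the TGI there is no net growth.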

Columns and labels:
Assay in all cases: NCI anticancer screen, dose series, 48 h
HT29 colon = test system: HT29 colon
786-0 renal = test system: 786-0 renal
KM12 colon = test system: KM12 colon
SK-OV-3 ovarian = test system: SK-OV-3 ovarian
IGROV1 ovarian = test system: IGROV1 ovarian
MOLT-4 leukemia = test system: MOLT-4 leukemia
HOP-92 NSCLC = test system: HOP-92 NSCLC
A549 NSCLC = test system: A549 NSCLC
MDA-N = test system: MDA-N
OVCAR-4 ovarian = test system: OVCAR-4 ovarian
SF-268 CNS = test system: SF-268 CNS
MCF7 breast = test system: MCF7 breast
SK-MEL-5 melanoma = test system: SK-MEL-5 melanoma
HOP-62 NSCLC = test system: HOP-62 NSCLC
DU-145 prostate = test system: DU-145 prostate
EKVX NSCLC = test system: EKVX NSCLC
SF-295 CNS = test system: SF-295 CNS
UACC-62 melanoma = test system: UACC-62 melanoma
MALME-3M melanoma = test system: MALME-3M melanoma
SK-MEL-28 melanoma = test system: SK-MEL-28 melanoma
SNB-75 CNS = test system: SNB-75 CNS
TK-10 renal = test system: TK-10 renal
MDA-MB-231 breast = test system: MDA-MB-231 breast
K-562 leukemia = test system: K-562 leukemia
T-47D breast = test system: T-47D breast
UACC-257 melanoma = test system: UACC-257 melanoma
HL-60(TB) leukemia = test system: HL-60(TB) leukemia
CAKI-1 renal = test system: CAKI-1 renal
MDA-MB-435 = test system: MDA-MB-435
M14 melanoma = test system: M14 melanoma
SW-620 colon = test system: SW-620 colon
SN12C renal = test system: SN12C renal
HCT-15 colon = test system: HCT-15 colon
COLO 205 colon = test system: COLO 205 colon
RPMI-8226 leukemia = test system: RPMI-8226 leukemia
CCRF-CEM leukemia = test system: CCRF-CEM leukemia
RXF 393 renal = test system: RXF 393 renal
NCI-H23 lung = test system: NCI-H23 lung
OVCAR-8 ovarian = test system: OVCAR-8 ovarian
PC-3 prostate = test system: PC-3 prostate
SR leukemia = test system: SR leukemia
HCC-2998 colon = test system: HCC-2998 colon
BT-549 breast = test system: BT-549 breast
SNB-19 CNS = test system: SNB-19 CNS
ACHN renal = test system: ACHN renal
HCT-116 colon = test system: HCT-116 colon
NCI-H226 lung = test system: NCI-H226 lung
UO-31 renal = test system: UO-31 renal
OVCAR-3 ovarian = test system: OVCAR-3 ovarian
A498 renal = test system: A498 renal
NCI-H460 lung = test system: NCI-H460 lung
NCI/ADR-RES ovarian = test system: NCI/ADR-RES ovarian
HS 578T breast = test system: HS 578T breast
SK-MEL-2 melanoma = test system: SK-MEL-2 melanoma
SF-539 CNS = test system: SF-539 CNS
LOX IMVI melanoma = test system: LOX IMVI melanoma
OVCAR-5 ovarian = test system: OVCAR-5 ovarian
NCI-H522 lung = test system: NCI-H522 lung
U251 CNS = test system: U251 CNS

CC(=O)Nc1ccccc1NC1CC(C)N(c2ccccc2)N1C(C)=O (stereo not drawn)
TGI (HT29 colon): > 10 µM | TGI (786-0 renal): > 10 µM | TGI (KM12 colon): > 10 µM | TGI (SK-OV-3 ovarian): > 10 µM | TGI (IGROV1 ovarian): > 10 µM | TGI (MOLT-4 leukemia): > 10 µM | TGI (HOP-92 NSCLC): > 10 µM | TGI (A549 NSCLC): > 10 µM | TGI (MDA-N): > 10 µM | TGI (OVCAR-4 ovarian): > 10 µM | TGI (SF-268 CNS): > 10 µM | TGI (MCF7 breast): > 10 µM | TGI (SK-MEL-5 melanoma): > 10 µM | TGI (HOP-62 NSCLC): > 10 µM | TGI (DU-145 prostate): > 10 µM | TGI (EKVX NSCLC): > 10 µM | TGI (SF-295 CNS): > 10 µM | TGI (UACC-62 melanoma): > 10 µM | TGI (MALME-3M melanoma): > 10 µM | TGI (SK-MEL-28 melanoma): > 10 µM | TGI (SNB-75 CNS): > 10 µM | TGI (TK-10 renal): > 10 µM | TGI (MDA-MB-231 breast): > 10 µM | TGI (K-562 leukemia): > 10 µM | TGI (T-47D breast): > 10 µM | TGI (UACC-257 melanoma): > 10 µM | TGI (HL-60(TB) leukemia): > 10 µM | TGI (CAKI-1 renal): > 10 µM | TGI (MDA-MB-435): > 10 µM | TGI (M14 melanoma): > 10 µM | TGI (SW-620 colon): > 10 µM | TGI (SN12C renal): > 10 µM | TGI (HCT-15 colon): > 10 µM | TGI (COLO 205 colon): > 10 µM | TGI (RPMI-8226 leukemia): > 10 µM | TGI (CCRF-CEM leukemia): > 10 µM | TGI (RXF 393 renal): > 10 µM | TGI (NCI-H23 lung): > 10 µM | TGI (OVCAR-8 ovarian): > 10 µM | TGI (PC-3 prostate): > 10 µM | TGI (SR leukemia): > 10 µM | TGI (HCC-2998 colon): > 10 µM

C=CC(COC(c1ccccc1)(c1ccccc1)c1ccccc1)N(CC)CC (stereo not drawn)
GI50 (HT29 colon): 1930 nM | TGI (HT29 colon): 7.05 µM | GI50 (786-0 renal): 11.4 µM | TGI (786-0 renal): 27.7 µM | GI50 (KM12 colon): 4.33 µM | TGI (KM12 colon): 14.8 µM | GI50 (SK-OV-3 ovarian): 8.12 µM | TGI (SK-OV-3 ovarian): 21.4 µM | GI50 (IGROV1 ovarian): 5.09 µM | TGI (IGROV1 ovarian): 20.1 µM | GI50 (BT-549 breast): 14.7 µM | TGI (BT-549 breast): 30.3 µM | GI50 (MOLT-4 leukemia): 3.02 µM | TGI (MOLT-4 leukemia): 11.6 µM | GI50 (SNB-19 CNS): 10.1 µM | TGI (SNB-19 CNS): 25.3 µM | GI50 (HOP-92 NSCLC): 4.5 µM | TGI (HOP-92 NSCLC): 18 µM | GI50 (A549 NSCLC): 5.16 µM | TGI (A549 NSCLC): 18.4 µM | GI50 (ACHN renal): 8.1 µM | TGI (ACHN renal): 23.9 µM | GI50 (HCT-116 colon): 3.43 µM | TGI (HCT-116 colon): 14.3 µM | GI50 (OVCAR-4 ovarian): 4.74 µM | TGI (OVCAR-4 ovarian): 17.5 µM | GI50 (SF-268 CNS): 11 µM | TGI (SF-268 CNS): 24.9 µM | GI50 (MCF7 breast): 2800 nM | TGI (MCF7 breast): 7.21 µM | GI50 (SK-MEL-5 melanoma): 1950 nM | TGI (SK-MEL-5 melanoma): 3.98 µM | GI50 (NCI-H226 lung): 11.9 µM | TGI (NCI-H226 lung): 30.9 µM | GI50 (UO-31 renal): 3.54 µM | TGI (UO-31 renal): 16.4 µM | GI50 (HOP-62 NSCLC): 3.93 µM | TGI (HOP-62 NSCLC): 15.6 µM | GI50 (DU-145 prostate): 6.54 µM | TGI (DU-145 prostate): 20.2 µM | GI50 (OVCAR-3 ovarian): 7.04 µM | TGI (OVCAR-3 ovarian): 20.3 µM | GI50 (EKVX NSCLC): 4.48 µM | TGI (EKVX NSCLC): 19.2 µM | GI50 (SF-295 CNS): 1740 nM | TGI (SF-295 CNS): 3.78 µM | GI50 (UACC-62 melanoma): 3.61 µM | TGI (UACC-62 melanoma): 12.5 µM | GI50 (MALME-3M melanoma): 1890 nM | TGI (MALME-3M melanoma): 4.3 µM | GI50 (SK-MEL-28 melanoma): 3.59 µM | TGI (SK-MEL-28 melanoma): 11.8 µM | GI50 (SNB-75 CNS): 10.3 µM | TGI (SNB-75 CNS): 22.5 µM | GI50 (TK-10 renal): 3.19 µM | TGI (TK-10 renal): 10.8 µM | GI50 (MDA-MB-231 breast): 3.35 µM | TGI (MDA-MB-231 breast): 13.5 µM | GI50 (K-562 leukemia): 2070 nM | TGI (K-562 leukemia): 5.86 µM | GI50 (A498 renal): 8.25 µM | TGI (A498 renal): 23.5 µM | GI50 (T-47D breast): 4.6 µM | TGI (T-47D breast): 19.8 µM | GI50 (UACC-257 melanoma): 2270 nM | TGI (UACC-257 melanoma): 6.32 µM | GI50 (NCI-H460 lung): 2500 nM | TGI (NCI-H460 lung): 6.58 µM | GI50 (HL-60(TB) leukemia): 3.68 µM | TGI (HL-60(TB) leukemia): 16.2 µM | GI50 (NCI/ADR-RES ovarian): 3.88 µM | TGI (NCI/ADR-RES ovarian): 18.2 µM | GI50 (HS 578T breast): 2210 nM | TGI (HS 578T breast): 9.86 µM | GI50 (CAKI-1 renal): 2430 nM | TGI (CAKI-1 renal): 11.8 µM | GI50 (MDA-MB-435): 4.04 µM | TGI (MDA-MB-435): 16.3 µM | GI50 (M14 melanoma): 2530 nM | TGI (M14 melanoma): 6.19 µM | GI50 (SW-620 colon): 2320 nM | TGI (SW-620 colon): 7.95 µM | GI50 (SN12C renal): 7.97 µM | TGI (SN12C renal): 24.5 µM | GI50 (HCT-15 colon): 2600 nM | TGI (HCT-15 colon): 13.9 µM | GI50 (COLO 205 colon): 1700 nM | TGI (COLO 205 colon): 3.4 µM | GI50 (SK-MEL-2 melanoma): 4.68 µM | TGI (SK-MEL-2 melanoma): 13.9 µM | GI50 (SF-539 CNS): 4.88 µM | TGI (SF-539 CNS): 18.6 µM | GI50 (RPMI-8226 leukemia): 2990 nM | TGI (RPMI-8226 leukemia): 7.8 µM | GI50 (CCRF-CEM leukemia): 3.76 µM | TGI (CCRF-CEM leukemia): 14.8 µM | GI50 (LOX IMVI melanoma): 4.73 µM | TGI (LOX IMVI melanoma): 18.8 µM | GI50 (RXF 393 renal): 2920 nM | TGI (RXF 393 renal): 8.21 µM | GI50 (NCI-H23 lung): 6.07 µM | TGI (NCI-H23 lung): 19.9 µM | GI50 (OVCAR-8 ovarian): 5.87 µM | TGI (OVCAR-8 ovarian): 20.1 µM | GI50 (PC-3 prostate): 4.02 µM | TGI (PC-3 prostate): 15.6 µM | GI50 (OVCAR-5 ovarian): 6.66 µM | TGI (OVCAR-5 ovarian): 22.1 µM | GI50 (NCI-H522 lung): 4.18 µM | TGI (NCI-H522 lung): 15.2 µM | GI50 (SR leukemia): 2130 nM | TGI (SR leukemia): 5.29 µM | GI50 (U251 CNS): 2980 nM | TGI (U251 CNS): 12 µM | GI50 (HCC-2998 colon): 4.28 µM | TGI (HCC-2998 colon): 16.4 µM
